Reference: US20030162834A1, “Natural physiologically active material effective on fish diseases and fish food containing the material” (priority 1998, published 2003)

How the values were obtained:
Enterococcus seriolicida = experiment: Trial 11: turbidimetric antibacterial assay; format: cell-based; details: 500 ppm in BHI liquid culture medium, 13 hours, 23 degrees centigrade
Experimental: (§1) The turbidimetric analysis was employed. Fatty acids of C2, C4, C6-C10 were each dissolved in 2 ml of BHI liquid culture medium at 500 ppm concentration. A number 1×10^5 of typical bacteria (Vibrio anguillarum, Edwardsiella tarda and Enterococcus seriolicida) causing the fish bacterial diseases were inoculated in each adjusted culture medium, followed by cultivation for 13 hours at 23 degrees centigrade. After the cultivation, turbidity of the culture medium was measured at 600 nm to determine the amount of multiplied bacteria. The trial was conducted two times. Results are shown in FIG. 19 (Vibrio anguillarum), FIG. 20 (Edwardsiella tarda), and FIG. 21 (Enterococcus seriolicida).

Edwardsiella tarda = experiment: Trial 11: turbidimetric antibacterial assay; format: cell-based; details: 500 ppm in BHI liquid culture medium, 13 hours, 23 degrees centigrade
Experimental: as §1

Vibrio anguillarum = experiment: Trial 11: turbidimetric antibacterial assay; format: cell-based; details: 500 ppm in BHI liquid culture medium, 13 hours, 23 degrees centigrade
Experimental: as §1

Heterobothrium okamotoi = details: drug bath about one hour, about 800 ppm formalin; cited from earlier work
[1] = system: Vibrio sp. infection and gliding bacterium infection; experiment: Trial 12: bleeding trial on spotted plaice with occurred bacterial disease; format: in vivo
Excerpt: Spotted plaice weighing approximately 60 g in average was employed in this trial. Each 270 pieces of spotted plaice were put in off-shore net pens of 4×4×2.5 m, and bled for 100 days. […] The number of dead fish and the fish situations were observed. The fish were fed twice per day, i.e., in the morning and evening. The water temperature during the trial period was in the range of 14-17 degrees centigrade.

fish bacteria = experiment: Trial 11: overall statement on C12 against fish bacteria; format: cell-based; details: low concentration, not the same condition as 500 ppm
Experimental: as §1, with “Fatty acids of C2, C4, C6-C10 were each dissolved in 2 ml of BHI liquid culture medium at 500 ppm concentration.” left out

Solubility = format: physicochemical
[2] = system: parasites (Heterobothrium okamotoi, Cryptocaryon irritans); experiment: Trial 1: overall statements on efficacy of fatty acids against parasites; format: cell-based; details: Trial 1 summary; C12 at a low concentration, not the same condition
Experimental: Fatty acids having carbon number C2, C4 and C6-C10 were each dissolved in seawater at 1 mM concentration, and oncomiracidia of Heterobothrium okamotoi and larvae attaching to the gill were immersed in the seawater solutions. After 2 hours from the start of immersion, the efficacy of the fatty acids was investigated by counting the number of dead oncomiracidia and the number of larvae dropping down from the gill. More than 30 individuals of parasites were transferred to each group.
For Cryptocaryon irritans, fatty acids having carbon number C2, C4 and C6-C10 were each dissolved in seawater at 0.5 mM concentration, and theronts of Cryptocaryon irritans were immersed in the seawater solutions. After 1 hour from the start of immersion, the efficacy of the fatty acids was investigated by counting the number of dead theronts. More than 200 individuals of parasites were transferred to each group.
For any of the groups, the trial was made under condition of 20 degrees centigrade.

Cryptocaryon irritans [3] = experiment: Trial 8: octanoic acid versus its monoglyceride and triglyceride, oral, red sea bream; format: in vivo; details: diet amount equal to 17.5 mM octanoic acid residues (2.5 g acid, 3.8 g monoglyceride, 2.7 g triglyceride per kg)
Excerpt: Fish tested: Red sea bream weighing approximately 15.8 g in average.
Trial groups: Four groups, i.e., an octanoic-acid added group in which fish were fed diets added with octanoic acid, a monoglyceride added group in which fish were fed diets added with monoglyceride of octanoic acid, a triglyceride added group in which fish were fed diets added with triglyceride of octanoic acid, and a control group in which fish were fed diets added with neither octanoic acid nor glycerides. The feeding rate was 3% of fish weight/day for each group.
Trial diets: The diets added with octanoic acid were prepared by spraying 2.5 g (17.5 mM with respect to the diet weight) of octanoic acid to 1 kg of commercially available pellets for red sea bream. […]. Specifically, the diets added with monoglyceride and triglyceride were prepared respectively by spraying 3.8 g of monoglyceride and 2.7 g of triglyceride to 1 kg of the commercially available pellets for red sea bream. The control group fish were fed the commercially available pellets for red sea bream.
Challenge trial: Each 10 pieces of fish from among a shoal of fish, in which no diseases such as Cryptocaryon irritans infection were found, were put in a 100-liter water tank, and were fed the respective trial diets. After 5 days, approximately 2000 individuals of theronts of Cryptocaryon irritans were put into each water tank to infect the fish while water flow was stopped for 1 hour. Then, bleeding was continued for 31 days while feeding the respective trial diets. During the trial period, the water temperature was 24+−1 degrees centigrade and the water was exchanged at 20 cycles/day.
Evaluation was made by sampling 5 pieces of fish from each group after 18 and 31 days from the start of the challenge, and comparing the number of the parasites attaching to the gill of each fish.

Cryptocaryon irritans [4] = experiment: In vitro assay of glycerides of octanoic acid against Cryptocaryon irritans; format: cell-based
[5] = diets containing 0.5% decanoic acid fed from the 64-th day

**Q.** With `CCCCCCCCC(=O)O` [C9, pelargonic acid] as the molecule, how does the “antibacterial activity (turbidity at 600 nm)” value (Enterococcus seriolicida) read?
**A.** showed an antibacterial activity

**Q.** What about the “antibacterial activity (turbidity at 600 nm)” value (Edwardsiella tarda) of the same molecule?
**A.** showed an antibacterial activity

**Q.** And the “antibacterial activity (turbidity at 600 nm)” value (Vibrio anguillarum)?
**A.** showed an antibacterial activity

**Q.** Which “effect on adult parasites” value (Heterobothrium okamotoi) does the source give for `C=O` [formalin] here?
**A.** cannot destroy adult parasites at all

**Q.** And the larvae destroyed (Heterobothrium okamotoi)?
**A.** ≤ 80%

**Q.** For `CN(C)[C@@H]1C(O)=C(C(N)=O)C(=O)[C@@]2(O)C(O)=C3C(=O)c4c(O)cccc4[C@@](C)(O)[C@H]3[C@H](O)[C@@H]12` [OTC, exytetracycline, reference compound], which “number of dead fish after application” value ([1]; OTC in diet 6 days (22-th to 27-th day), 0.5 g of 10% OTC/kg of fish weight) is on record?
**A.** reduced

**Q.** What about the “complete remedy of the Vibrio sp. infection” value ([1]; OTC in diet 6 days, 0.5 g of 10% OTC/kg of fish weight) of the same molecule?
**A.** not confirmed

**Q.** Which antibacterial activity (fish bacteria) does the source give for `CCCCCCCCCCCC(=O)O` [C12, lauric acid] here?
**A.** a similar activity was found even at a low concentration

**Q.** And the solubility in seawater (Solubility; Trial 1 conditions (1 mM / 0.5 mM))?
**A.** so low in solubility that the trial could not be made under the same condition

**Q.** And the “solubility in BHI liquid culture medium” value (Solubility; Trial 11 conditions (500 ppm))?
**A.** so low in solubility that the trial could not be made under the same condition

**Q.** And the efficacy against parasites [2]?
**A.** a similar activity was found even at a low concentration

**Q.** For `CCCCCCCC(=O)OCC(O)CO` (stereo not drawn) [monoglyceride of octanoic acid], which “number of parasites attaching to the gill after 18 and 31 days, versus control” value (Cryptocaryon irritans [3]) is on record?
**A.** apparently fewer

**Q.** And the “antibacterial activity against Cryptocaryon irritans” value (Cryptocaryon irritans [4])?
**A.** an antibacterial activity though at a lower level than octanoic acid

**Q.** Which “antibacterial activity (turbidity at 600 nm)” value (Enterococcus seriolicida) does the source give for `CCCCCCCCCC(=O)O` [decanoic acid] here?
**A.** showed an antibacterial activity

**Q.** What about the “antibacterial activity (turbidity at 600 nm)” value (Edwardsiella tarda) of the same molecule?
**A.** showed an antibacterial activity

**Q.** And the “antibacterial activity (turbidity at 600 nm)” value (Vibrio anguillarum)?
**A.** showed an antibacterial activity

**Q.** And the “dead fish after the 72-th day from the start of the trial” value [1, 5]?
**A.** no dead fish were found

**Q.** What about the “fish suffering abrasion and bleeding due to the infections” value [1, 5] of the same molecule?
**A.** not found

**Q.** And the “number of dead fish after feeding” value [1, 5]?
**A.** apparently reduced

**Q.** What does the source list for `CCCCCCCC(=O)OCC(COC(=O)CCCCCCC)OC(=O)CCCCCCC` [triglyceride of octanoic acid]?
**A.** number of parasites attaching to the gill after 18 and 31 days, versus control (Cryptocaryon irritans [3]): apparently fewer; antibacterial activity against Cryptocaryon irritans (Cryptocaryon irritans [4]): no antibacterial activity
